# Laboratory results: patent US8669255B2, “Substituted octahydropyrrolo[1,2-a]pyrazines as calcium channel blockers” (AbbVie Inc., priority 2011, dated 2014)
# Test system: neuropathic pain (chronic constriction injury, CCI)
# Test: In vivo assessment of analgesic effect against neuropathic pain (Bennett model, chronic constriction injury, tactile allodynia with von Frey filaments)
# Conditions: Rattus norvegicus, po, 1 h, male Sprague Dawley rats, 10 mg/kg orally, mechanical allodynia 60 minutes following administration, percentage of maximum possible effect from log g PWT, read-out: % MPE
# Procedure: (ii) Vivo Assessment of Analgesic Effect Against Neuropathic Pain (Bennett Model)
# Animals were prepared for testing, by use of a surgical procedure that induces neuropathic pain in one paw. IACUC guidelines for rodent survival surgery were followed. All surgical procedures were conducted on a clean, uncluttered surgical station. The area was wiped with a 70% ethanol solution before and after use. All instruments were sterilized by either autoclave or chemical sterilant (such as 2% glutaraldehyde>10 hours). Surgeons wore sterile gloves (for the initial procedure), clean lab coat or scrubs, hairnet or cap, and a half-mask respirator (when not working under a hood). Surgeons thoroughly washed their hands prior to donning sterile gloves. Gloves were disinfected in-between animals by cleansing with povidone iodine, chlorhexidine or 70% alcohol for at least 30 seconds. If multiple surgeries were performed, the instruments were cleaned and sterilized between procedures with hot glass beads (>10 seconds). To prevent thermal or chemical burns, the instruments were cooled by rinsing in sterile saline before use.
# Male, Sprague Dawley® rats, 175-200 g were used for surgeries. To minimize post-operative dehydration/maintain blood volume during the surgery, warmed sterile saline or Lactate Ringers solution at 10-15 mL/kg was administered subcutaneously immediately before or after surgery. This facilitates better renal function and presumably anesthesia product excretion post surgery. For all surgical procedures, anesthesia was induced with 4-5% isoflurane. Anesthesia was maintained during surgery with 1-3% isoflurane. Following induction, the surgical site was carefully shaved and the exposed area was aseptically prepared with povidone-iodine scrub solution and 70% ethanol 2-3 times.
# Chronic constriction injury (CCI), a model of neuropathic pain, was produced by following the method of Bennett and Xie (Bennett, G., et al. Pain, 1988, 33, 87-107). After site sterilization and anesthetic procedures outline above were completed, a 1.5 cm incision is made at the mid-thigh level to expose the biceps femoris and gluteous superficialis (right side), which were then separated by blunt dissection. The common sciatic nerve was exposed, isolated, and loosely ligated by four 5-0 chromic gut ligatures with <1 mm spacing between each. The surgical site was closed in layers—muscle is closed with 6.0 absorbable sutures, and the skin closed with wound clips. Animals were allowed to recover on a warming plate and were returned to their home cages when fully ambulatory. Animals were not be used for testing until at least 10 days following surgery.
# To measure mechanical sensitivity, tactile allodynia was measured using calibrated von Frey filaments (Stoelting, Wood Dale, Ill.) as described by Chaplan et al. (Chaplan S., et al. J of Neuroscience Methods 1994, 53, 55-63). Filament strengths used were: 0.4, 0.6, 1.0, 2, 4, 6, 8, and 15 g. Rats were placed into inverted individual plastic containers (20×12.5×20 cm) on top of a suspended wire mesh grid, and acclimated to the test chambers for at least 20 minutes. Filaments were applied perpendicular to the mid-plantar paw surface with enough force to cause slight buckling and held in place for 6-8 seconds. Positive responses included an abrupt withdrawal of the paw from the stimulus or flinching behavior immediately following removal of the stimulus. The maximum force applied was 15 g. The 50% paw withdrawal threshold (PWT) was calculated in grams (g) using the up-down method of Dixon (Dixon W. Ann Rev Pharmacol Toxicol 1980, 20, 441-462). […] All compounds were orally administered at 10 mg/kg in 10% dimethyl sulfoxide/polyethylene glycol at a volume of 2.0 mL/kg, and mechanical allodynia was determined 60 minutes following compound administration. […]
row,SMILES,inhibition in vivo at 10 mg/kg [%]
1,"O=C(c1cccc(OC(F)(F)F)c1)N1CCN2C[C@H](Oc3cnc(C4CC4)cn3)C[C@H]2C1 [Example 81, [(7R,8aS)-7-[(5-cyclopropylpyrazin-2-yl)oxy]hexahydropyrrolo[1,2-a]-pyrazin-2(1H)-yl][3-(trifluoromethoxy)phenyl]methanone]",39
2,"O=C(c1cccc(C(F)(F)F)c1F)N1CCN2C[C@H](Oc3cnc(C4CC4)cn3)C[C@H]2C1 [Example 80, [(7R,8aS)-7-[(5-cyclopropylpyrazin-2-yl)oxy]hexahydropyrrolo[1,2-a]-pyrazin-2(1H)-yl][2-fluoro-3-(trifluoromethyl)phenyl]methanone]",31
3,"O=C(c1cc(C(F)(F)F)ccc1Cl)N1CCN2C[C@H](Oc3cnc(C4CC4)cn3)C[C@H]2C1 [Example 72, [2-chloro-5-(trifluoromethyl)phenyl][(7R,8aS)-7-[(5-cyclopropylpyrazin-2-yl)oxy]hexahydropyrrolo[1,2-a]pyrazin-2(1H)-yl]methanone]",20
4,"O=C(c1cc(F)c(Cl)cc1F)N1CCN2C[C@H](Oc3cnc(C4CC4)cn3)C[C@H]2C1 [Example 73, (4-chloro-2,5-difluorophenyl)[(7R,8aS)-7-[(5-cyclopropylpyrazin-2-yl)-oxy]hexahydropyrrolo[1,2-a]pyrazin-2(1H)-yl]methanone]",48
5,"O=C(c1cccc(C(F)(F)F)c1)N1CCN2C[C@H](Oc3cnc(C4CC4)cn3)C[C@H]2C1 [Example 68, [(7R,8aS)-7-[(5-cyclopropylpyrazin-2-yl)oxy]hexahydropyrrolo[1,2-a]-pyrazin-2(1H)-yl][3-(trifluoromethyl)phenyl]methanone]",28
6,"O=C(/C=C/c1ccc(F)c(C(F)(F)F)c1)N1CCN2C[C@H](Oc3cnc(C4CC4)cn3)C[C@H]2C1 [Example 154, (2E)-1-[(7R,8aS)-7-[(5-cyclopropylpyrazin-2-yl)oxy]hexahydropyrrolo[1,2-a]pyrazin-2(1H)-yl]-3-[4-fluoro-3-(trifluoromethyl)phenyl]prop-2-en-1-one]",0
7,"O=C(c1cccc(C(F)(F)F)c1)N1CC(=O)N2C[C@H](Oc3cnc(C4CC4)cn3)C[C@H]2C1 [Example 178, (7R,8aS)-7-[(5-cyclopropylpyrazin-2-yl)oxy]-2-[3-(trifluoromethyl)-benzoyl]hexahydropyrrolo[1,2-a]pyrazin-4(1H)-one]",28
8,"O=C(c1ccc(F)c(C(F)(F)F)c1)N1CCN2C[C@H](Oc3cnc(C4CC4)cn3)C[C@H]2C1 [Example 55, [(7R,8aS)-7-[(5-cyclopropylpyrazin-2-yl)oxy]hexahydropyrrolo[1,2-a]-pyrazin-2(1H)-yl][4-fluoro-3-(trifluoromethyl)phenyl]methanone]",31
9,"CN[C@H](C(=O)N1CCN2C[C@H](Oc3cnc(C4CC4)cn3)C[C@H]2C1)c1cccc(C(F)(F)F)c1 [Example 186, (2S)-1-[(7R,8aS)-7-[(5-cyclopropylpyrazin-2-yl)oxy]hexahydropyrrolo[1,2-a]pyrazin-2(1H)-yl]-2-(methylamino)-2-[3-(trifluoromethyl)phenyl]ethanone]",91
10,"CN[C@@H](C(=O)N1CCN2C[C@H](Oc3cnc(C4CC4)cn3)C[C@H]2C1)c1cccc(C(F)(F)F)c1 [Example 187, (2R)-1-[(7R,8aS)-7-[(5-cyclopropylpyrazin-2-yl)oxy]hexahydropyrrolo[1,2-a]pyrazin-2(1H)-yl]-2-(methylamino)-2-[3-(trifluoromethyl)phenyl]ethanone]",67
